The values below come from ChEMBL document CHEMBL1156674, “Exploration of physicochemical properties and molecular modelling studies of 2-sulfonyl-phenyl-3-phenyl-indole analogs as cyclooxygenase-2 inhibitors” (Eur J Med Chem, 2008).

This test concerns the target T1, Prostaglandin G/H synthase 2 (Homo sapiens, UniProt P35354).
T1 sequence (P35354 whole entry): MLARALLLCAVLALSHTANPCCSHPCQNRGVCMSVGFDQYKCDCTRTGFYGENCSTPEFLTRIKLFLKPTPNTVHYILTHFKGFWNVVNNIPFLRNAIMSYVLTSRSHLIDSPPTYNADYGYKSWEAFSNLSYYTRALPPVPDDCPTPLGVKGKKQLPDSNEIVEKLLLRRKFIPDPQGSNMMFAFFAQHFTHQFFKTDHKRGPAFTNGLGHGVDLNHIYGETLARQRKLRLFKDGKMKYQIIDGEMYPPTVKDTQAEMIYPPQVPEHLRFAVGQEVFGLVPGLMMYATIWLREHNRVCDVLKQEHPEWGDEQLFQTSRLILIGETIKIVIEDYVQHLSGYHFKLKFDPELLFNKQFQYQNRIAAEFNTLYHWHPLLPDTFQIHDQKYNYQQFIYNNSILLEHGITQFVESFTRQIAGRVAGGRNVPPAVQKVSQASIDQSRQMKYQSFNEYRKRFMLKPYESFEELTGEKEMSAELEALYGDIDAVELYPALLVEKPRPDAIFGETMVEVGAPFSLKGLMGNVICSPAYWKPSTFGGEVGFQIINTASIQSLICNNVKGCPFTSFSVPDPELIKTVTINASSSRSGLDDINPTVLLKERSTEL

What is called IC50 is the midpoint of a concentration-inhibition curve. In the case of `NS(=O)(=O)c1ccc(-c2[nH]c3ccc(Cl)cc3c2-c2ccc(Cl)cc2)cc1`, half-maximal inhibition (IC50) required 0.54 nM. In the case of `NS(=O)(=O)c1ccc(-c2[nH]c3ccccc3c2-c2ccc(F)cc2)cc1`, the IC50 (read-out: IC50) was 5.15 nM. Same read-out and setting: then `CC(=O)NS(=O)(=O)c1ccc(-c2[nH]c3ccccc3c2-c2ccccc2)cc1`, with 0.18 nM. `CS(=O)(=O)c1ccc(-c2[nH]c3ccccc3c2-c2ccc(Br)cc2)cc1`: the IC50 is 0.37 nM. On the same count and under the same terms, then `CS(=O)(=O)c1ccc(-c2[nH]c3ccccc3c2-c2ccccc2)cc1`, with 0.6 nM. As to `Cc1ccc(-c2c(-c3ccc(S(C)(=O)=O)cc3)[nH]c3ccccc23)cc1C`, the IC50 (read-out: IC50) came to 0.17 nM. Same read-out and setting: under `CS(=O)(=O)c1ccc(-c2[nH]c3ccc(Cl)cc3c2-c2ccc(Cl)cc2)cc1` stands 85.1 nM. `CS(=O)(=O)c1ccc(-c2[nH]c3ccccc3c2-c2ccc(Cl)cc2)cc1`: the IC50 came out at 146 nM. Same read-out and setting: under `CS(=O)(=O)c1ccc(-c2[nH]c3ccc(Br)cc3c2-c2ccccc2)cc1` stands 1.41 nM. `NS(=O)(=O)c1ccc(-c2[nH]c3ccc(Cl)cc3c2-c2ccccc2Cl)cc1`: under “read-out: IC50”, the IC50 worked out at 100 nM. The compound `COc1ccc(-c2c(-c3ccc(S(C)(=O)=O)cc3)[nH]c3ccccc23)cc1` showed an IC50 of 0.02 nM. As to `Cc1ccc(-c2c(-c3ccc(S(N)(=O)=O)cc3)[nH]c3ccccc23)cc1`, for the setting “read-out: IC50”, the IC50 turned out to be 0.07 nM. Still for that read-out and setting: under `CS(=O)(=O)c1ccc(-c2[nH]c3ccc(Cl)cc3c2-c2ccccc2Cl)cc1` stands 10 nM; under `CS(=O)(=O)c1ccc(-c2[nH]c3ccc(Cl)cc3c2-c2cccc(Cl)c2)cc1`, 0.8 nM.

Regarding `NS(=O)(=O)c1ccc(-c2[nH]c3ccc(Cl)cc3c2-c2ccccc2)cc1`, half-maximal inhibition (IC50) required 0.14 nM. The same measure, in the same setting: under `Cc1ccc(-c2c(-c3ccc(S(C)(=O)=O)cc3)[nH]c3ccccc23)cc1` stands 0.09 nM. `NS(=O)(=O)c1ccc(-c2[nH]c3ccccc3c2-c2ccc(Cl)cc2)cc1`: the IC50 (read-out: IC50) was found to be 33.5 nM. On the same count and under the same terms, under `NS(=O)(=O)c1ccc(-c2[nH]c3ccc(Br)cc3c2-c2ccccc2)cc1` stands 5 nM; under `NS(=O)(=O)c1ccc(-c2[nH]c3ccc(F)cc3c2-c2ccccc2)cc1`, 2 nM.

Take `Cc1ccc(-c2c(-c3ccc(S(N)(=O)=O)cc3)[nH]c3ccccc23)cc1C`: the IC50 was found to be 1.46 nM. As to `NS(=O)(=O)c1ccc(-c2[nH]c3ccc(Cl)cc3c2-c2cccc(Cl)c2)cc1`, the IC50 (read-out: IC50) was 3.13 nM. Take `Cc1ccc2[nH]c(-c3ccc(S(C)(=O)=O)cc3)c(-c3ccccc3)c2c1`: half-maximal inhibition (IC50) required 0.28 nM.

`Cc1ccc2[nH]c(-c3ccc(S(N)(=O)=O)cc3)c(-c3ccccc3)c2c1` had an IC50 of 0.02 nM. As for `NS(=O)(=O)c1ccc(-c2[nH]c3ccccc3c2-c2ccc(O)cc2)cc1`, half-maximal inhibition (IC50) required 6.44 nM. Still for that read-out and setting: then `NS(=O)(=O)c1ccc(-c2[nH]c3ccccc3c2-c2ccccc2)cc1`, with 0.09 nM. On to `CS(=O)(=O)c1ccc(-c2[nH]c3ccc(F)cc3c2-c2ccccc2)cc1`, for which the IC50 (read-out: IC50) was determined as 5 nM.
